{"source": "paper PMC12392461", "about": "“Beyond Estrogenicity: A Comparative Assessment of Bisphenol A and Its Alternatives in In Vitro Assays Questions Safety of Replacements” (Environmental Science & Technology, 2025)", "key": {"SH-SY5Y cells": {"system": "SH-SY5Y cells", "experiment": "cells", "settings": "for EC10: Homo sapiens, SH-SY5Y; for Specificity ratio (SRbaseline) SRNOI: against baseline cytotoxicity; for Relative effect potency REPNOI: relative to BPA; for EC10, linear / logEC10: NOI bioassay, dosing range all; for EC10, linear: linear model; for logEC10: log-logistic model", "from_the_text": "All bioassay media components and the ERα-UAS-bla GripTite and PPARγ-UAS-bla cells were obtained from Thermo Fisher Scientific (Waltham, MA, USA). AREc32 reporter gene cells based on MCF7 were provided by C. Roland Wolf (Cancer Research UK); AhR CALUX cells (H4L7.5c2 derived from H4IIe) were provided by Michael Denison (UC Davis, USA); and SH-SY5Y cells were purchased from Sigma-Aldrich.\n(§1) Cell culture conditions and bioassay protocols including response detection are provided in Text S2.1–2.4 and Table S3. − Cell viability was determined from cell confluency using an IncuCyte S3 Live-Cell Analysis System (Sartorius AG, Essen, Germany) before and after exposure, except for SH-SY5Y cells (live–dead staining with Nuclear Green LcS1 and propidium iodide, Abcam, UK). For metabolic activation experiments, cell viability was assessed using the ToxBLAzer DualScreen Kit (Thermo Fisher Scientific) to capture the remaining toxicity in ERα-UAS-bla GripTite after treatment with the aCYP catalyst (details in Text S2.4).\nFor ARE, the concentration that triggered an induction ratio of 1.5 (ECIR1.5) was used as the benchmark value, as detailed in Text S2.5. IC10 values also served as a threshold for data analysis in all assays; only concentrations below IC10 were considered when deriving EC10 or ECIR1.5. […]\nS2: Cell culture and bioassays\nS2.1: Cell Culturing Conditions\nAll suppliers and sources are given in detail in SI-Excel S3. The bioassay media for the different assays were prepared as follows: Assay medium for ER alpha-UAS-bla GripTite (ERα) and PPAR gamma-UAS-bla 293H (PPARγ) was prepared with 98% Opti-MEM, supplemented with 2% charcoal-stripped FBS, and 100 U/mL penicillin-streptomycin. MitoOxTox and AhR assay medium was comprised of 90% DMEM with GlutaMAX, supplemented with 10% FBS, and 100 U/mL penicillin-streptomycin. Neurotoxicity assay medium consisted of the neurobasal […]\n(1 picture or pasted object on this page, not shown here) […]\nmedium, supplemented with 2% B-27 Supplement and 2 mM GlutaMAX Supplement. SH - SY5Y cells were differentiated with 10 µM all-trans retinoic acid prior to the assay.\nS2.2: Cell Seeding and Incubation. For all bioassays, cell suspensions in the respective assay medium were dispensed into each well of 384-well plates using a MultiFlo Dispenser (Biotek, (now Agilent), Winooski, VT, U.S.). After seeding, the plates were incubated at 37° C and 5% CO₂ for […]. The final cell densities and plate types were as follows: Black poly-D-lysine coated 384-well plates (Product No. 354663, Corning Inc., NYC, U.S.) were used for PPARγ:\n6500 cells/well, ERα: 5000 cells/well. White 384-well plates with a clear bottom (Product No.\n781098, Greiner, Kremsmünster, Austria) were utilized for the MitoOxTox assay: 2650"}, "[1]": {"system": "ERα-UAS-bla GripTite cells", "settings": "TKcytotoxicity-Ratio", "experimental": "as §1, with “S2.4). […]” for “S2.4).”\nThe TK-Ratio method was used to evaluate the impact of abiotic CYP oxidation on the potency of tested compounds. […]\nFor experiments with the preceding aCYP activation, ERα cell viability was additionally calculated from the readout of the ToxBLAzer reagent. The ToxBLAzer assay was conducted following the manufacturer's instructions (Thermo Fisher, Waltham, MA, U.S.).13 Fluorescence intensity was recorded at the start of the assay ( Fwavelength(0h)) and after a 2-hour incubation at […]\neq. S11 for normalization.\nCell viability = F665nm(2h, sample)-F665nm(0h, average cell-free) (S11) F665nm(2h, average unexposed)-F665nm(0h, average cell-free) […]\nthe specific endpoint to avoid artifacts from cytotoxicity burst. 15\nS2.5: Concentration-response curves (CRCs)\nTo avoid bias from cytotoxicity burst at higher concentrations, all concentrations exceeding the IC10 for cytotoxicity were excluded in the CRC modeling of effects but otherwise cytotoxicity and effects were fitted with the same model equations (response stands for cytotoxicity or effect). For ERα, AhR, ARE and PPARγ preferably a linear model was fitted to the linear portion of CRC up to maximum 30% effect (eq. S12),16 but in some cases it was necessary to choose a sigmoidal log-concentration-response model, specifically a log-logistic model (eq. S13), to derive effect concentrations and cytotoxicity. […]\nThis was done using the\nAutomatedBioassayScreening19 published by Braun et al.,20 which also included an algorithm to choose the best model between eq. S12 and eq. S13.\nResponse (%) = slope × C (S12) […]\nlogEC =logEC − 1 ∙log (max−min − 100%) (S14)"}, "[2]": {"settings": "read-out: EC10, linear transformed"}}, "note": "Where two headings read alike, the source gives them in different places.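 For Relative effect potency REPNOI in this document: EC10 of BPA divided by EC10 of the test compound so values above 1 mean more potent.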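 For Specificity ratio (SRbaseline) SRNOI in this document: ratio of predicted baseline cytotoxicity IC10 to the neurite outgrowth inhibition EC10.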", "data": [{"molecule": "CC(C)Oc1ccc(S(=O)(=O)c2ccc(O)cc2)cc1", "note": "[D8, 4-((4-Isopropoxyphenyl)sulfonyl)phenol]", "values": [{"measurement": "EC10", "setting": "SH-SY5Y cells; read-out: EC10, NOI", "value": 0.000191, "unit": "M"}, {"measurement": "EC10", "setting": "SH-SY5Y cells; read-out: EC10, NOI (M)", "value": 0.000191, "unit": "M"}, {"measurement": "EC10", "setting": "SH-SY5Y cells; read-out: EC10, linear", "value": 0.000353, "unit": "M"}, {"measurement": "EC10", "setting": "SH-SY5Y cells; [2]", "value": 0.000186, "unit": "M"}, {"measurement": "EC10", "setting": "SH-SY5Y cells; read-out: logEC10", "value": 0.000191, "unit": "M"}, {"measurement": "Specificity ratio (SRbaseline) SRNOI", "setting": "SH-SY5Y cells", "value": 0.56}, {"measurement": "Specificity ratio (SRcytotoxicity) SRNOI", "setting": "SH-SY5Y cells; against experimental cytotoxicity", "value": 2.56}, {"measurement": "Relative effect potency REPNOI", "setting": "SH-SY5Y cells", "value": 0.27}, {"measurement": "TKcytotoxicity", "setting": "[1]; Table S10", "value": 0.94}]}, {"molecule": "O=S(=O)(c1ccc(O)cc1)c1ccc(OCc2ccccc2)cc1", "note": "[BPS-MPE, 4-[4-(benzyloxy)benzenesulfonyl]phenol]", "values": [{"measurement": "EC10", "setting": "SH-SY5Y cells; read-out: EC10, NOI", "value": 0.000247, "unit": "M"}, {"measurement": "EC10", "setting": "SH-SY5Y cells; read-out: EC10, NOI (M)", "value": 0.000247, "unit": "M"}, {"measurement": "EC10", "setting": "SH-SY5Y cells; read-out: EC10, linear", "value": 0.000638, "unit": "M"}, {"measurement": "EC10", "setting": "SH-SY5Y cells; [2]", "value": 0.000247, "unit": "M"}, {"measurement": "EC10", "setting": "SH-SY5Y cells; read-out: logEC10", "value": 0.000245, "unit": "M"}, {"measurement": "Specificity ratio (SRbaseline) SRNOI", "setting": "SH-SY5Y cells", "value": 0.11}, {"measurement": "Relative effect potency REPNOI", "setting": "SH-SY5Y cells", "value": 0.21}, {"measurement": "TKcytotoxicity", "setting": "[1]; Table S10", "value": 0.45}]}, {"molecule": "Oc1ccc(Sc2ccc(O)cc2)cc1", "note": "[BPT, 4,4'-Thiodiphenol]", "values": [{"measurement": "EC10, linear", "setting": "SH-SY5Y cells", "value": "no effect"}, {"measurement": "logEC10", "setting": "SH-SY5Y cells", "value": "no effect"}, {"measurement": "TKcytotoxicity", "setting": "[1]; Table S10", "value": 1.35}, {"measurement": "TKcytotoxicity", "setting": "[1]; Table S11", "value": 1.00}]}, {"molecule": "CC(C)(c1cc(Cl)c(O)c(Cl)c1)c1cc(Cl)c(O)c(Cl)c1", "note": "[TCBPA, 2,2',6,6'-Tetrachlorobisphenol A]", "values": [{"measurement": "EC10", "setting": "SH-SY5Y cells; read-out: EC10, NOI", "value": 0.000322, "unit": "M"}, {"measurement": "EC10", "setting": "SH-SY5Y cells; read-out: EC10, NOI (M)", "value": 0.000322, "unit": "M"}, {"measurement": "EC10", "setting": "SH-SY5Y cells; [2]", "value": 0.000322, "unit": "M"}, {"measurement": "EC10", "setting": "SH-SY5Y cells; read-out: logEC10", "value": 0.000324, "unit": "M"}, {"measurement": "EC10, linear", "setting": "SH-SY5Y cells", "value": "masked by cytotoxicity"}, {"measurement": "TKcytotoxicity", "setting": "[1]; Table S10", "value": 0.85}, {"measurement": "TKcytotoxicity", "setting": "[1]; Table S11", "value": 0.40}]}, {"molecule": "CC(C)(c1ccc(O)c(-c2ccccc2)c1)c1ccc(O)c(-c2ccccc2)c1", "note": "[BPPH, 2,2-Bis(2-hydroxy-5-biphenylyl)propane]", "values": [{"measurement": "EC10", "setting": "SH-SY5Y cells; read-out: EC10, linear", "value": "9.84e-06", "unit": "M"}, {"measurement": "EC10", "setting": "SH-SY5Y cells; [2]", "value": "2.12e-05", "unit": "M"}, {"measurement": "logEC10", "setting": "SH-SY5Y cells", "value": "no effect"}, {"measurement": "TKcytotoxicity", "setting": "[1]; Table S10", "value": 0.11}]}, {"molecule": "Oc1ccc(Cc2ccc(O)cc2)cc1", "note": "[BPF, Bis(4-hydroxyphenyl)methane]", "values": [{"measurement": "EC10", "setting": "SH-SY5Y cells; [2]", "value": 0.000697, "unit": "M"}, {"measurement": "EC10, linear", "setting": "SH-SY5Y cells", "value": "no effect"}, {"measurement": "logEC10", "setting": "SH-SY5Y cells", "value": "no effect"}, {"measurement": "TKcytotoxicity", "setting": "[1]; Table S10", "value": 0.75}, {"measurement": "TKcytotoxicity", "setting": "[1]; Table S11", "value": 0.44}]}]}
